Reference: ChEMBL document CHEMBL1152090, “Engineering of cyclic peptides with novel inhibiting properties to differentiate two serine proteases, chymotrypsin and subtilisin Carlsberg” (Bioorg Med Chem Lett, 1994)
Blank lines part the entries; values can stand above or below the compound they belong to.

Experiments:
[1] = Compound was tested for the inhibition of subtilisin carlsberg at 138 nM
Chymotrypsinogen A [2] = biological target: T1, Chymotrypsinogen A (Bos taurus, UniProt P00766); test: Compound was tested for the inhibition of chymotrypsin at 69 nM
Chymotrypsinogen A [3] = biological target: T1, Chymotrypsinogen A; test: Compound was tested for the inhibition of chymotrypsin at 138 nM
[4] = Compound was tested for the inhibition of subtilisin carlsberg at 23 nM
[5] = biological target: Chymotrypsinogen A (Bos taurus) (UniProt P00766); conditions: 120 nM
[6] = biological target: Chymotrypsinogen A (Bos taurus) (UniProt P00766); conditions: 276 nM
Chymotrypsinogen A [7] = biological target: T1, Chymotrypsinogen A; test: Compound was tested for the inhibition of chymotrypsin at 120 nM
[8] = Compound was tested for the inhibition of subtilisin carlsberg at 690 nM
[9] = Compound was tested for the inhibition of subtilisin carlsberg at 300 nM
Chymotrypsinogen A [10] = biological target: T1, Chymotrypsinogen A; test: Compound was tested for the inhibition of chymotrypsin at 276 nM
[11] = tested on: CC[C@H](C)[C@@H]1NC(=O)[C@@H](CCCN=C(N)N)NC(=O)[C@H](Cc2ccc(O)cc2)NC(=O)[C@@H](CCC(=O)O)NC(=O)[C@H](CCSC)NC(=O)[C@@H]([C@@H](C)O)NC(=O)[C@H](N)CCC(=O)NCCCC[C@H](C(N)=O)NC(=O)[C@@H](C(C)C)NC(=O)[C@H](CCCN=C(N)N)NC(=O)[C@@H](CCC(=O)O)NC1=O; conditions: 120 nM
[12] = tested on: CC[C@H](C)[C@@H]1NC(=O)[C@@H](CCCN=C(N)N)NC(=O)[C@H](Cc2ccc(O)cc2)NC(=O)[C@@H](CCC(=O)O)NC(=O)[C@H](CCSC)NC(=O)[C@@H]([C@@H](C)O)NC(=O)[C@H](N)CCC(=O)NCCCC[C@H](C(N)=O)NC(=O)[C@@H](C(C)C)NC(=O)[C@H](CCCN=C(N)N)NC(=O)[C@@H](CCC(=O)O)NC1=O; conditions: 276 nM
[13] = tested on: CC[C@H](C)[C@@H]1NC(=O)[C@@H](CCCN=C(N)N)NC(=O)[C@H](Cc2ccc(O)cc2)NC(=O)[C@@H](CCC(=O)O)NC(=O)[C@H](CCSC)NC(=O)[C@@H]([C@@H](C)O)NC(=O)[C@H](N)CCC(=O)NCCCC[C@H](C(N)=O)NC(=O)[C@@H](C(C)C)NC(=O)[C@H](CCCN=C(N)N)NC(=O)[C@@H](CCC(=O)O)NC1=O; conditions: 276 nM; remark: listed apart in the source
[14] = tested on: CC[C@H](C)[C@@H]1NC(=O)[C@@H](CCCN=C(N)N)NC(=O)[C@H](Cc2ccc(O)cc2)NC(=O)[C@@H](CCC(=O)O)NC(=O)[C@H](CCSC)NC(=O)[C@@H]([C@@H](C)O)NC(=O)[C@H](N)CCC(=O)NCCCC[C@H](C(N)=O)NC(=O)[C@@H](C(C)C)NC(=O)[C@H](CCCN=C(N)N)NC(=O)[C@@H](CCC(=O)O)NC1=O; conditions: 120 nM; remark: listed apart in the source

Ki [1]: 116 nM
Ki (Chymotrypsinogen A [2]): 203 nM
Ki (Chymotrypsinogen A [3]): 191 nM
Ki [4]: 128 nM
Compound: CC[C@H](C)[C@@H]1NC(=O)[C@@H](NC(C)=O)CC(=O)/N=C(/N)NCCC[C@@H](C(N)=O)NC(=O)[C@H](Cc2ccc(O)cc2)NC(=O)[C@H](CCC(=O)O)NC(=O)[C@H](CCSC)NC(=O)[C@H]([C@@H](C)O)NC(=O)[C@H](C(C)C)NC1=O

k cat [5]: 55.1 s⁻¹
k cat [6]: 45.8 s⁻¹
Compound: CC[C@H](C)[C@@H]1NC(=O)[C@@H](CCCN=C(N)N)NC(=O)[C@H](Cc2ccc(O)cc2)NC(=O)[C@@H](CCC(=O)O)NC(=O)[C@H](CCSC)NC(=O)[C@@H]([C@@H](C)O)NC(=O)[C@H](N)CCC(=O)NCCCC[C@H](C(N)=O)NC(=O)[C@@H](C(C)C)NC(=O)[C@H](CCCN=C(N)N)NC(=O)[C@@H](CCC(=O)O)NC1=O

Ki (Chymotrypsinogen A [7]): 668 nM
Ki [8]: 786 nM
Ki [9]: 775 nM
Ki (Chymotrypsinogen A [10]): 656 nM
Compound: CC[C@H](C)[C@@H]1NC(=O)[C@H](CCCNC(=N)N)NC(=O)[C@H](Cc2ccc(O)cc2)NC(=O)[C@H](CCC(=O)O)NC(=O)[C@H](CCSC)NC(=O)[C@H]([C@@H](C)O)NC(=O)[C@@H](N)CCC(=O)NCCCC[C@@H](C(N)=O)NC(=O)[C@H](C(C)C)NC(=O)[C@H](CCCNC(=N)N)NC(=O)[C@H](CCC(=O)O)NC1=O

Compound: Chymotrypsinogen A (Bos taurus) (from UniProt P00766)
Vmax [11]: 3.89e-07 M⁻¹ s⁻¹
Vmax [12]: 3.23e-07 M⁻¹ s⁻¹
Km [13]: 298 µM
Km [14]: 310 µM
